# Measurements from paper PMC10981686, “Structural bases of inhibitory mechanism of CaV1.2 channel inhibitors” (Nature Communications, 2024).
# Several values for one entry are separate records, joined by “and”; a condition that tells them apart may be missing. Equal entries are not always repeated. Where two headings read alike, the source gives them in different places.
# How the values were obtained:
# [1] = tested on: CaV1.2 with substitutions at positions T1056 and Q1060; parameters: method as in PMID 9006896; settings: result in words; cited from earlier work
# [2] = target: T1, CaV1.2^WT (human CaV1.2 with α2δ1 and β2) (Homo sapiens, UniProt Q13936); assay: whole-cell patch clamp inhibition curves in HEK293T cells, wild-type CaV1.2; format: cell-based; settings: for logIC50 (best-fit value): X values in μM
# T1 construct: superfolder GFP (sfGFP) (C); Twin-Strep (C); expressed in transfected cells; host or cells: HEK293T
# Method: (§1) Whole-cell voltage-clamp recordings were carried out using human embryonic kidney 293 T (HEK293T) cells, which were cultured in Dulbecco’s Modified Eagle Medium (DMEM, Gibco) supplemented with 10% (v/v) fetal bovine serum (FBS, PAN-Biotech) at 37 °C supplemented with 5% CO2. Three distinct recombinant baculoviruses encoding CaV1.2, α2δ1, and β2 were used to coinfect HEK293T cells once they reached a confluence of 40–60%. After 8−12 h, transfected cells were re-plated on 8 × 8 mm coverslips, and sodium butyrate was added to the culture at a final concentration of 0.5−2.5 mM to improve protein expression. Whole-cell recordings of activation curves were performed from isolated GFP-positive HEK293T cells at 20−28 h after transfection with recombinant baculoviruses. […] Pipettes were pulled to obtain final resistances of 2−6 MΩ with a Sutter P-97 puller and heat-polished before employment. […] The series resistance was not compensated in these experiments. […] Signals were digitized at 10 kHz and low-pass filtered at 2 kHz. Data were analyzed with Clampfit 10.7.
# (§2) To measure the inhibition curves, 2 μg endotoxin-free plasmids of wild-type (WT) or mutants generated by PCR expressing CaV1.2, α2δ1, and β2 were transiently transfected using 1.2 μg Lipofectamine 2000 Reagent (Thermo Fisher Scientific). For curves determining, re-plated cells were held at −100 mV, and then depolarized at +10 mV to elicit inward currents. To ensure stable currents during measurement, a series of traces were pre-recorded at a specific time interval without drug application for each construct. […] Perfusions applied using a gravity-driven system. […] Data analyses were performed using Origin 2022 (Origin Lab Corporation), GraphPad Prism 9 (GraphPad Software, Inc.) and Adobe illustrator 2018.
# CaV1.2^T1056Y = target: T2, CaV1.2^T1056Y (Homo sapiens, UniProt Q13936, T1056Y); assay: whole-cell patch clamp inhibition curves in HEK293T cells, T1056Y mutant; format: cell-based
# T2 construct: superfolder GFP (sfGFP) (C); Twin-Strep (C); expressed in transfected cells; host or cells: HEK293T
# Method: as §1, §2
# CaV1.2^Q1060M = target: T3, CaV1.2^Q1060M (Homo sapiens, UniProt Q13936, Q1060M); assay: whole-cell patch clamp inhibition curves in HEK293T cells, Q1060M mutant; format: cell-based
# T3 construct: superfolder GFP (sfGFP) (C); Twin-Strep (C); expressed in transfected cells; host or cells: HEK293T
# Method: as §1, §2
# CaV1.2^Q1060F = target: T4, CaV1.2^Q1060F (Homo sapiens, UniProt Q13936, Q1060F); assay: whole-cell patch clamp inhibition curves in HEK293T cells, Q1060F mutant; format: cell-based
# T4 construct: superfolder GFP (sfGFP) (C); Twin-Strep (C); expressed in transfected cells; host or cells: HEK293T
# Method: as §1, §2
# N-type CaV channels = settings: cited from earlier work
# T-type CaV channels = settings: cited from earlier work
# [3] = tested on: L-type and T-type channels; parameters: method as in earlier work; settings: result in words, 82 and references of Supplementary Table 2, cited from earlier work
# CaV1.2^N741W = target: T5, CaV1.2^N741W (Homo sapiens, UniProt Q13936, N741W); assay: whole-cell patch clamp inhibition curves in HEK293T cells, N741W mutant; format: cell-based
# T5 construct: superfolder GFP (sfGFP) (C); Twin-Strep (C); expressed in transfected cells; host or cells: HEK293T
# Method: as §1, §2
# CaV1.2^N1179W = target: T6, CaV1.2^N1179W (Homo sapiens, UniProt Q13936, N1179W); assay: whole-cell patch clamp inhibition curves in HEK293T cells, N1179W mutant; format: cell-based
# T6 construct: superfolder GFP (sfGFP) (C); Twin-Strep (C); expressed in transfected cells; host or cells: HEK293T
# Method: as §1, §2
# T5 sequence (Q13936 whole entry N741W): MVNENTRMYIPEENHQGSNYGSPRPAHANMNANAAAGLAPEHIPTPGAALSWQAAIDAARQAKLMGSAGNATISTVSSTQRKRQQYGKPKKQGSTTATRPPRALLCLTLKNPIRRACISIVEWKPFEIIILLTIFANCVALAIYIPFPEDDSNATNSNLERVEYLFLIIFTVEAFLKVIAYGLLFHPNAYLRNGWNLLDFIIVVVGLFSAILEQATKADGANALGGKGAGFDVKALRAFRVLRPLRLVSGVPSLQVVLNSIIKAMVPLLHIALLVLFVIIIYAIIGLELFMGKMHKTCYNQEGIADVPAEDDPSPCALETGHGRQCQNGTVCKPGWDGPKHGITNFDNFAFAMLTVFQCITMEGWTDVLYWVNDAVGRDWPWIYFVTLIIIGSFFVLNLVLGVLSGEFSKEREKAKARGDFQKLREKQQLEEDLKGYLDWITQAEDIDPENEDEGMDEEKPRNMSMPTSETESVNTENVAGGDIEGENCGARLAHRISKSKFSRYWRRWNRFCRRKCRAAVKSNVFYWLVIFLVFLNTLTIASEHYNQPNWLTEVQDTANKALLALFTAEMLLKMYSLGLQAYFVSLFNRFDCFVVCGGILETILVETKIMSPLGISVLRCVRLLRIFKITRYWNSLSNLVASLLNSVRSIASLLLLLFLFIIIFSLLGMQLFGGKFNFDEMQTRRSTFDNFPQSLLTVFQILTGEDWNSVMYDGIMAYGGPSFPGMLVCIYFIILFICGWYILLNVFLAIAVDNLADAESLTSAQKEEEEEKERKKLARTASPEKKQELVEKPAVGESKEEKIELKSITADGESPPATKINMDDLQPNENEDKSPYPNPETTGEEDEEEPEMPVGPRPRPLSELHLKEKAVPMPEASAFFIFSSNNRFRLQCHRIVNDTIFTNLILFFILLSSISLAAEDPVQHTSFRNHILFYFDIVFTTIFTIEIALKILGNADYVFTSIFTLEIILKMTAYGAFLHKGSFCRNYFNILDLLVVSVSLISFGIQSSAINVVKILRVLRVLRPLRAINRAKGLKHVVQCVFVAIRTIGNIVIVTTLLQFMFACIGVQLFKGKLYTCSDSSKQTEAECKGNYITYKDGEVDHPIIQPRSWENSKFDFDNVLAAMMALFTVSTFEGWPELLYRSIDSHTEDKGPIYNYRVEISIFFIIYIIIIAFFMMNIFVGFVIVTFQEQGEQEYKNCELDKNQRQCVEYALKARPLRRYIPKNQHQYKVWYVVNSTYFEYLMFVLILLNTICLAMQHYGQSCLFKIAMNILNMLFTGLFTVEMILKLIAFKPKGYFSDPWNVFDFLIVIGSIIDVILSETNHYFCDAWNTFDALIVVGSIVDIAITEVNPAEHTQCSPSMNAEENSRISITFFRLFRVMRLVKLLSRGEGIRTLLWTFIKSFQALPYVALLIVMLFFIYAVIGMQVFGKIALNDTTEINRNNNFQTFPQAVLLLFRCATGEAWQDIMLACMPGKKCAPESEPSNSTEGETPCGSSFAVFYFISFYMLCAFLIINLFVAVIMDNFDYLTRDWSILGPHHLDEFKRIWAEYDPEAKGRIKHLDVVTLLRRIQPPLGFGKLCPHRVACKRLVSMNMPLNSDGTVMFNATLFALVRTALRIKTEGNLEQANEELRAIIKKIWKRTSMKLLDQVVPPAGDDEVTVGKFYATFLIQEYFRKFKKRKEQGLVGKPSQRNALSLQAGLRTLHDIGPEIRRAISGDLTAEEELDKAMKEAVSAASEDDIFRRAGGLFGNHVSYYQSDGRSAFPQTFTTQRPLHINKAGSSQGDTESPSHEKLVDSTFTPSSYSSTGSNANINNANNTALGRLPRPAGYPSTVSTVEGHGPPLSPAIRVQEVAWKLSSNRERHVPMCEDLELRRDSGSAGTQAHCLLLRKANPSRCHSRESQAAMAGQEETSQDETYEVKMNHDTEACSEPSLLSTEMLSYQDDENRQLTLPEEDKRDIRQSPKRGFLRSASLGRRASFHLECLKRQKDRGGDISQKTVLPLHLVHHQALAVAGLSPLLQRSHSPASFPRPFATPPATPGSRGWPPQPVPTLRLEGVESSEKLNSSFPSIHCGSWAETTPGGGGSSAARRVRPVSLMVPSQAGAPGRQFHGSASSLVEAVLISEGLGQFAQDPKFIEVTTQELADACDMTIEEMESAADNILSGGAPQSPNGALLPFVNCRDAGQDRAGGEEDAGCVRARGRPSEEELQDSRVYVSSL
# T5 sequence (P54289 25-946 partner limits assumed): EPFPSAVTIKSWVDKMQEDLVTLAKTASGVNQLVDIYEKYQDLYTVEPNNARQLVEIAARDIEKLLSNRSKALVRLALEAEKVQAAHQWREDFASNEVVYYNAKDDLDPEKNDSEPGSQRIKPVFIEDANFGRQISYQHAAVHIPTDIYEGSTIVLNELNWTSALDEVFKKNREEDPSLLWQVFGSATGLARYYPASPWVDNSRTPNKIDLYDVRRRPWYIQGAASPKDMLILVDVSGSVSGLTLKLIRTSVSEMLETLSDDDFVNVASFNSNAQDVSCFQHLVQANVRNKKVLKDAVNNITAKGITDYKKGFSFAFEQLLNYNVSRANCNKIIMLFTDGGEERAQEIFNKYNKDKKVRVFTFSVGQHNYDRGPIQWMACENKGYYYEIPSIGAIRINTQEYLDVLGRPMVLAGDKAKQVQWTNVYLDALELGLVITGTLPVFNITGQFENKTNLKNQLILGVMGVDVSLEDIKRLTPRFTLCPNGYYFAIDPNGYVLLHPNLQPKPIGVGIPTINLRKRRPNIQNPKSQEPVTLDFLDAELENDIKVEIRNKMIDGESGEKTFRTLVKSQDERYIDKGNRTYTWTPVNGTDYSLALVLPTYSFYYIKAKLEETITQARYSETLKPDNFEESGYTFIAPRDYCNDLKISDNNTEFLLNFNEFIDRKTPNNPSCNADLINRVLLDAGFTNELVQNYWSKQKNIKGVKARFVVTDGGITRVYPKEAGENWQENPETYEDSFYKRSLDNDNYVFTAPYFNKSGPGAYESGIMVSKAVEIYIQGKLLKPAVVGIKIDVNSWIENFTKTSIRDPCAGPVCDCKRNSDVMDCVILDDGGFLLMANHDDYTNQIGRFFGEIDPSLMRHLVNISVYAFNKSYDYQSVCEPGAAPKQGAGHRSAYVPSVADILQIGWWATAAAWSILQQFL
# T5 sequence (P54289 947-1103 partner limits assumed): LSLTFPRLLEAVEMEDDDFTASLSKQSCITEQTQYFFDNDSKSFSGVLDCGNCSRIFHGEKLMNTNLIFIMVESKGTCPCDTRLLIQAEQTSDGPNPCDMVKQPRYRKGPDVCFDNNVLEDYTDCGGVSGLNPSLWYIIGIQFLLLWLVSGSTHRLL
# T5 sequence (Q08289 1-606 isoform Q08289-3 partner): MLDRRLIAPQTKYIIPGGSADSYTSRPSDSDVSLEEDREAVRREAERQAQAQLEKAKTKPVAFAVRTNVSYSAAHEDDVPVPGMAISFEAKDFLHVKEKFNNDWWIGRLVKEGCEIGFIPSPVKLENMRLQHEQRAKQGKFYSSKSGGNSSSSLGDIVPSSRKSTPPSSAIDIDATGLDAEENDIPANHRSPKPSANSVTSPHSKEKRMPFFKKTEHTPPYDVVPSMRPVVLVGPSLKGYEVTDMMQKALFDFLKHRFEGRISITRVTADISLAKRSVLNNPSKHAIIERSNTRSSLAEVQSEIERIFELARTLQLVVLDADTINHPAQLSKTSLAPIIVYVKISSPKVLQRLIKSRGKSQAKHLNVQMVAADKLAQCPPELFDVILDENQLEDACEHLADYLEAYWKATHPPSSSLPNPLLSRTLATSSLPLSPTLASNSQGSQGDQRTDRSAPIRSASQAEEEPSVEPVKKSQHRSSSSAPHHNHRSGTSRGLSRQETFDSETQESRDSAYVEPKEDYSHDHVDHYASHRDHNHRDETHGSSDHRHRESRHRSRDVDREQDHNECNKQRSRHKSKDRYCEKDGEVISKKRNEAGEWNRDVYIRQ
# T2 sequence (Q13936 whole entry T1056Y): as the sequence (Q13936 whole entry N741W) above, with W741N, T1056Y counted along it
# T2 sequence (P54289 25-946 partner limits assumed): as the sequence (P54289 25-946 partner limits assumed) above
# T2 sequence (P54289 947-1103 partner limits assumed): as the sequence (P54289 947-1103 partner limits assumed) above
# T2 sequence (Q08289 1-606 isoform Q08289-3 partner): as the sequence (Q08289 1-606 isoform Q08289-3 partner) above
smiles,measurement,setting,value
CC1=C(C(=O)OC(C)C)[C@@H](c2cccc3nonc23)C([N+](=O)[O-])=C(C)N1 [R202-791],effect of substitutions at T1056 and Q1060 on sensitivity of CaV1.2 to the drug,[1],almost abolished the sensitivity
COC(=O)C1=C(C)NC(C)=C(C(=O)OC2CCCN(Cc3ccccc3)C2)C1c1cccc([N+](=O)[O-])c1 (stereo not drawn) [benidipine],remaining activity at 0.01 µM,"[2]; HEK-293T, benidipine 0.01 μM, WT, single experiments, Supplementary Fig. 7c source data, read-out: normalized current (I/Imax)",91%
same,remaining activity at 1 µM,"[2]; HEK-293T, benidipine 1 μM, WT, single experiments, Supplementary Fig. 7c source data, read-out: normalized current (I/Imax)",27.4%
same,CaV1.2 current reduction,[2]; benidipine 100 μM,90%
same,HillSlope (best-fit value),"[2]; benidipine, WT",-0.5499
same,logIC50 (best-fit value),"[2]; benidipine, WT",-0.6638
same,remaining activity at 0.01 µM,"CaV1.2^T1056Y; HEK-293T, benidipine 0.01 μM, T1056Y, single experiments, Supplementary Fig. 7c source data, read-out: normalized current (I/Imax)",99.8%
same,remaining activity at 0.1 µM,"CaV1.2^T1056Y; HEK-293T, benidipine 0.1 μM, T1056Y, single experiments, Supplementary Fig. 7c source data, read-out: normalized current (I/Imax)",91.4%
same,remaining activity at 1 µM,"CaV1.2^T1056Y; HEK-293T, benidipine 1 μM, T1056Y, single experiments, Supplementary Fig. 7c source data, read-out: normalized current (I/Imax)",85.3%
same,remaining activity at 10 µM,"CaV1.2^T1056Y; HEK-293T, benidipine 10 μM, T1056Y, single experiments, Supplementary Fig. 7c source data, read-out: normalized current (I/Imax)",67.2%
same,HillSlope (best-fit value),"CaV1.2^T1056Y; benidipine, T1056Y",-0.3204
same,logIC50 (best-fit value),"CaV1.2^T1056Y; benidipine, T1056Y, X values in μM",2.427
same,IC50,"CaV1.2^T1056Y; held at -100 mV, depolarized at +10 mV every 1 min, n = 4",> 100 µM
same,remaining activity at 0.01 µM,"CaV1.2^Q1060M; HEK-293T, benidipine 0.01 μM, Q1060M, single experiments, Supplementary Fig. 7c source data, read-out: normalized current (I/Imax)",97%
same,remaining activity at 0.1 µM,"CaV1.2^Q1060M; HEK-293T, benidipine 0.1 μM, Q1060M, single experiments, Supplementary Fig. 7c source data, read-out: normalized current (I/Imax)",88.7%
same,remaining activity at 1 µM,"CaV1.2^Q1060M; HEK-293T, benidipine 1 μM, Q1060M, single experiments, Supplementary Fig. 7c source data, read-out: normalized current (I/Imax)",73.2%
same,remaining activity at 10 µM,"CaV1.2^Q1060M; HEK-293T, benidipine 10 μM, Q1060M, single experiments, Supplementary Fig. 7c source data, read-out: normalized current (I/Imax)",46.7%
same,remaining activity at 100 µM,"CaV1.2^Q1060M; HEK-293T, benidipine 100 μM, Q1060M, single experiments, Supplementary Fig. 7c source data, read-out: normalized current (I/Imax)",20.1%
same,IC50,"CaV1.2^Q1060M; IC50 of benidipine on CaV1.2^Q1060M, held at -100 mV, depolarized at +10 mV every 1 min, n = 4",7.5 µM
same,HillSlope (best-fit value),"CaV1.2^Q1060M; benidipine, Q1060M",-0.4107
same,logIC50 (best-fit value),"CaV1.2^Q1060M; benidipine, Q1060M, X values in μM",0.8728
same,IC50,"CaV1.2^Q1060M; benidipine, Q1060M, variable slope fit, X values in μM per sheet Supplementary Figure 7c, read-out: IC50 (best-fit value)",7.46 µM
same,remaining activity at 0.01 µM,"CaV1.2^Q1060F; HEK-293T, benidipine 0.01 μM, Q1060F, single experiments, Supplementary Fig. 7c source data, read-out: normalized current (I/Imax)",93.9%
same,remaining activity at 0.1 µM,"CaV1.2^Q1060F; HEK-293T, benidipine 0.1 μM, Q1060F, single experiments, Supplementary Fig. 7c source data, read-out: normalized current (I/Imax)",88.2%
same,remaining activity at 1 µM,"CaV1.2^Q1060F; HEK-293T, benidipine 1 μM, Q1060F, single experiments, Supplementary Fig. 7c source data, read-out: normalized current (I/Imax)",81.9%
same,IC50,"CaV1.2^Q1060F; IC50 of benidipine on CaV1.2^Q1060F, held at -100 mV, depolarized at +10 mV every 1 min, n = 4",11.7 µM
same,HillSlope (best-fit value),"CaV1.2^Q1060F; benidipine, Q1060F",-0.3921
same,logIC50 (best-fit value),"CaV1.2^Q1060F; benidipine, Q1060F, X values in μM",1.07
same,IC50,"CaV1.2^Q1060F; benidipine, Q1060F, variable slope fit, X values in μM per sheet Supplementary Figure 7c, read-out: IC50 (best-fit value)",11.7 µM
same,IC50,N-type CaV channels,~35 µM
same,IC50,T-type CaV channels,11 µM and ~11 µM
same,selectivity class for L-type and T-type channels,[3],L/T-type selective
same,selectivity class for L-type and T-type channels,[3]; listed as Benidipine,non-selective
"COCCOC(=O)C1=C(C)NC(C)=C(C(=O)OC/C=C/c2ccccc2)C1c1cccc([N+](=O)[O-])c1 (stereo not drawn) [cilnidipine, Cilnidipine]",inhibition of T-type channels,T-type CaV channels; result in words,cannot inhibit T-type channels
same,selectivity class for L-type and T-type channels,[3],L-type selective
"CCOC(=O)C1=C(C)NC(C)=C(C(=O)OC)C1c1cccc(Cl)c1Cl (stereo not drawn) [felodipine, Felodipine]",selectivity class for L-type and T-type channels,[3],L-type selective
"COC(=O)C1=C(C)NC(C)=C(C(=O)OCCN2CCN(C(c3ccccc3)c3ccccc3)CC2)C1c1cccc([N+](=O)[O-])c1 (stereo not drawn) [manidipine, Manidipine]",selectivity class for L-type and T-type channels,[3],L/T-type selective
same,selectivity class for L-type and T-type channels,[3]; listed as Manidipine,non-selective
COC(=O)C1=C(C)NC(C)=C(C(=O)OC)C1c1ccccc1[N+](=O)[O-] [nifedipine],sensitivity of N-type CaV channels,N-type CaV channels; result in words,no sensitivity
same,sensitivity of T-type CaV channels,T-type CaV channels; result in words,no sensitivity
same,selectivity class for L-type and T-type channels,[3],L-type selective
"COCCOC(=O)C1=C(C)NC(C)=C(C(=O)OC(C)C)C1c1cccc([N+](=O)[O-])c1 (stereo not drawn) [nimodipine, Nimodipine]",preference among T-type channels,"T-type CaV channels; CaV3.1, CaV3.2, CaV3.3",preference for inhibiting CaV3.2 and CaV3.3 over CaV3.1
same,selectivity class for L-type and T-type channels,[3],non-selective
"CCOC(=O)C1=C(C)NC(C)=C(C(=O)OC)C1c1cccc([N+](=O)[O-])c1 (stereo not drawn) [nitrendipine, Nitrendipine]",selectivity class for L-type and T-type channels,[3],L-type selective
COc1ccc2cc1Oc1ccc(cc1)C[C@H]1c3cc(c(OC)cc3CCN1C)Oc1c(OC)c(OC)cc3c1[C@H](C2)N(C)CC3 [tetrandrine],remaining activity at 0.001 µM,"[2]; HEK-293T, tetrandrine 0.001 μM, WT, single experiments, Fig. 3f source data, read-out: normalized current (I/Imax)",84.9%
same,IC50,"[2]; IC50 of tetrandrine on CaV1.2^WT, held at -100 mV, depolarized at +10 mV every 20 s, n = 10",~0.0142 µM and 0.0142 µM
same,CaV1.2 current reduction,[2]; tetrandrine 10 μM,90%
same,HillSlope (best-fit value),"[2]; tetrandrine, WT",-0.4914
same,logIC50 (best-fit value),"[2]; tetrandrine, WT",-1.849
same,remaining activity at 0.001 µM,"CaV1.2^N741W; HEK-293T, tetrandrine 0.001 μM, N741W, single experiments, Fig. 3f source data, read-out: normalized current (I/Imax)",90.1%
same,remaining activity at 0.1 µM,"CaV1.2^N741W; HEK-293T, tetrandrine 0.1 μM, N741W, single experiments, Fig. 3f source data, read-out: normalized current (I/Imax)",49.4%
same,remaining activity at 10 µM,"CaV1.2^N741W; HEK-293T, tetrandrine 10 μM, N741W, single experiments, Fig. 3f source data, read-out: normalized current (I/Imax)",22.8%
same,IC50,"CaV1.2^N741W; IC50 of tetrandrine on CaV1.2^N741W, held at -100 mV, depolarized at +10 mV every 20 s, n = 10",0.0713 µM
same,HillSlope (best-fit value),"CaV1.2^N741W; tetrandrine, N741W",-0.3074
same,logIC50 (best-fit value),"CaV1.2^N741W; tetrandrine, N741W, X values in μM",-1.147
same,IC50,"CaV1.2^N741W; tetrandrine, N741W, variable slope fit, bottom 0, top 1, X values in μM per sheet Figure 3f, read-out: IC50 (best-fit value)",0.0712 µM
same,remaining activity at 0.001 µM,"CaV1.2^N1179W; HEK-293T, tetrandrine 0.001 μM, N1179W, single experiments, Fig. 3f source data, read-out: normalized current (I/Imax)",86.3%
same,IC50,"CaV1.2^N1179W; held at -100 mV, depolarized at +10 mV every 20 s, n = 10",0.0418 µM
same,HillSlope (best-fit value),"CaV1.2^N1179W; tetrandrine, N1179W",-0.3696
same,logIC50 (best-fit value),"CaV1.2^N1179W; tetrandrine, N1179W, X values in μM",-1.379
